# Earlier results in patent publication US20200236944A1, “DIURON-CONTAINING FRUIT THINNING AGENT” (ADAMA AGAN LTD., priority 2017, published 2020).
# Experiments:
# [1] = system: orange trees; conditions: 2500 ppm diuron
# [2] = system: peach leaves; conditions: 100 ppm diuron
structure (smiles),measurement,setting,value
"CN(C)C(=O)Nc1ccc(Cl)c(Cl)c1 [diuron, 3-(3,4-dichlorophenyl)-1,1-dimethylurea]",Fruiting of orange trees,[1],partially prevent the fruiting
same,Photosynthesis rate for peaches,[2],long-lasting and thus undesirably low
